From patent US9872861B2, “Methods of treatment using selective Bcl-2 inhibitors” (AbbVie Inc., priority 2010, dated 2018)
Where two headings read alike, the source gives them in different places. Marks after values point to notes of the source that are not given here.

Legend:
[1] = target: T1, Bcl-w (Homo sapiens, UniProt Q92843); assay: TR FRET competitive binding affinity, Bcl-w; conditions: read-out: Target Affinity TR FRET, Bcl-w
T1 sequence (Q92843 1-193): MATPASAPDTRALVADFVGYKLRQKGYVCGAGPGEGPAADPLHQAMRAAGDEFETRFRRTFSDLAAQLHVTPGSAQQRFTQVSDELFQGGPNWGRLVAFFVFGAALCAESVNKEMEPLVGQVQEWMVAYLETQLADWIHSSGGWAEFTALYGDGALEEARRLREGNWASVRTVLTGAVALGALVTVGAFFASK
Protocol: (§1) A comparison of the binding affinity for each of the compounds was performed to determine target affinity, as measured by Time-Resolved Fluorescence Resonance Energy Transfer (TR FRET).

[2] = test system: FL5.12-Bcl-2 cells; assay: Cellular efficacy in FL5.12 cells dependent on Bcl-2; format: cell-based, murine; conditions: Mus musculus, 3% FBS
[3] = test system: FL5.12-Bcl-XL cells; assay: Cellular efficacy in FL5.12 cells dependent on Bcl-XL; format: cell-based, murine; conditions: Mus musculus, 3% FBS
[4] = test system: RS4;11 cells; assay: Cellular efficacy in Bcl-2 dependent tumor cell line RS4;11; format: cell-based, human; conditions: Homo sapiens, RS4-11; 10% HS
[5] = test system: H146 cells; assay: Cellular efficacy in Bcl-XL dependent tumor cell line H146; format: cell-based; conditions: Homo sapiens, NCI-H146; 10% HS
[6] = test system: peripheral blood immune cells and platelets; assay: Peripheral blood lymphocytes and platelets in (NZB×NZW)F1 mice, Cell Dyn hematology analyzer; format: in vivo
[7] = target: Bcl-2 (Homo sapiens, UniProt P10415); assay: TR FRET competitive binding affinity, Bcl-2; conditions: read-out: Target Affinity TR FRET, Bcl-2
Protocol: as §1

[8] = target: Bcl-XL (Homo sapiens, UniProt Q07817); assay: TR FRET competitive binding affinity, Bcl-XL; conditions: read-out: Target Affinity TR FRET, Bcl-XL
Protocol: as §1

[9] = target: Mcl-1 (Homo sapiens, UniProt Q07820); assay: TR FRET competitive binding affinity, Mcl-1; conditions: read-out: Target Affinity TR FRET, Mcl-1
Protocol: as §1

[10] = test system: peripheral blood immune cells; assay: Peripheral blood lymphocytes in C57BL/6 mice, Cell Dyn hematology analyzer; format: in vivo; conditions: for inhibition in vivo at 100 mg/kg: Mus musculus, Lymphocyte
Protocol: The effect of the Bcl-2 selective/Bcl-XL sparing compounds on peripheral blood immune cells was also evaluated in C57BL/6 mice. Mice were treated four days with individual compounds (100 mg/kg, orally every day) and cell numbers were measured with a Cell Dyn hematology analyzer.

[11] = test system: spontaneous (NZB×NZW)F1 murine model of lupus; assay: Spontaneous (NZB×NZW)F1 murine model of lupus: proteinuria, survival, lymphopenia; format: in vivo, (NZB×NZW)F1 mice; conditions: Week 47, 100 mg/kg daily oral
From the text: (See Liu, K. and C. Mohan, What do mouse models teach us about human SLE? Clin Immunol, 2006. 119(2): p. 123-30) This model has been well-characterized with respect to the patho-physiological changes analogous to those of human SLE. […] Renal histopathological changes include severe glomerulonephritis, mesangial and peripheral proliferative changes, capillary membrane thickening, tubular atrophy, and infiltration of lymphocytes and monocytes/macrophages as in the majority of human SLE patients. These changes result in disruption of kidney function as evidenced by severe proteinuria (PU) greater than 300 mg/dL as measured by albumin sticks, followed by mortality as measured by survival. […] (See Gelfand, M. C. and A. D. Steinberg, Therapeutic studies in NZB-W mice. II. Relative efficacy of azathioprine, cyclophosphamide and methylprednisolone. Arthritis Rheum, 1972. 15(3): p. 247-52; and Ramos, M. A., et al., Modulation of autoantibody production by mycophenolate mofetil: effects on the development of SLE in (NZB×NZW)F1 mice. Nephrol Dial Transplant, 2003. 18(5): p. 878-83)
(NZB×NZW)F1 females were purchased from The Jackson Laboratory (Bar Harbor, Me., USA) and maintained in a conventional animal housing facility throughout the experiment. […] Proteinuria (PU) and survival were monitored weekly, followed by biweekly measurement of lymphocyte and platelet counts, and anti-ds DNA production. PK parameters were also measured throughout the study. Impact on IgG deposition and renal pathology were assessed at the conclusion of the study. Severe PU was defined by two consecutive weekly measurements of PU 300 mg/dl using Albustix test strips (VWR). When mice became moribund, they were sacrificed according to Institutional Animal Care and Use Committee protocols. PU and survival data were presented as Kaplan-Meyer survival curves using Graphpad Prism software and group differences were considered significant at the level of p<0.05. Histologic scores were analyzed using ANOVA analysis. Anti-ds DNA were analyzed using one-way ANOVA analysis and Tukey post-test.

[12] = test system: IFNα-induced (NZB×NZW)F1 lupus model; assay: IFNα-induced (NZB×NZW)F1 lupus model: proteinuria, survival, lymphopenia; format: in vivo, (NZB×NZW)F1 mice; conditions: 100 mg/kg/day orally
Protocol: Treatment was initiated in a late-prophylactic mode (7 days after IFNα adenovirus). […] All treatment groups were administered treatment 7 days after adenovirus injection. Following adenovirus injection, mice were monitored weekly for proteinuria (PU) using Albustix test strips (VWR). Severe PU was defined by consecutive weekly measurements of PU≧300 mg/dl. When mice became moribund, they were sacrificed according to Institutional Animal Care and Use Committee protocols.

[13] = (NZB×NZW)F1 mice, four days, orally every day
[14] = 30 and 100 mg/kg intraperitoneal every day, four days
[15] = 24 h, 1 oral dose of 100 mg/kg, read-out: Day 1 % Reduction vs. Vehicle
[16] = 96 h, 4 oral doses of 100 mg/kg, read-out: Day 4 % Reduction vs. Vehicle

Sequence of Bcl-XL (Q07817 whole entry): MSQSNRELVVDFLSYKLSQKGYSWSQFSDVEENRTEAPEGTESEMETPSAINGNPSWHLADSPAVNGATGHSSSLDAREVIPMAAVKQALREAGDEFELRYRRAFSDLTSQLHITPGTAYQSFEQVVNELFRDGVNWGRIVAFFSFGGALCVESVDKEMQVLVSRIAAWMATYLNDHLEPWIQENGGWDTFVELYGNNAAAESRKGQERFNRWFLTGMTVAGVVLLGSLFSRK
Sequence of Bcl-2 (P10415 whole entry): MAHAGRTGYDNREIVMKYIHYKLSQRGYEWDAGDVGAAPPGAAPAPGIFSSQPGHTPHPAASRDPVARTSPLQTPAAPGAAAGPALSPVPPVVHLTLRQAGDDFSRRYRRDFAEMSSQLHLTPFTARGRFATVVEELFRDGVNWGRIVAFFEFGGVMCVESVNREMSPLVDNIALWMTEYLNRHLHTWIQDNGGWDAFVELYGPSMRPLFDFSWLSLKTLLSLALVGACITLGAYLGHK
Sequence of Mcl-1 (Q07820 whole entry): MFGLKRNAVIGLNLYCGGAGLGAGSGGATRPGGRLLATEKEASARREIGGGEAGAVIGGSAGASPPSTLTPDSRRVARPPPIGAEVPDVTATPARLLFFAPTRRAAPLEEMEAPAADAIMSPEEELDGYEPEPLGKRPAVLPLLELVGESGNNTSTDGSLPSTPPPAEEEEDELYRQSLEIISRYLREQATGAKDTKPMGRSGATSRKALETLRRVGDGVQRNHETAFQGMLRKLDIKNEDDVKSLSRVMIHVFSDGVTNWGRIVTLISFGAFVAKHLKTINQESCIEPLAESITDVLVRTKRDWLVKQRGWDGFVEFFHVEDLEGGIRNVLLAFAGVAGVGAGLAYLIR

EC50 [2] | EC50 [3] | EC50 [4] | EC50 [5] | Ki [7] | Ki [8] | Ki [9] | SMILES | Day 1 Lymphocytes ([10]; 1 oral dose of 100 mg/kg) | Day 4 lymphocytes ([10]; 4 oral doses of 100 mg/kg) | inhibition in vivo at 100 mg/kg [10, 15] | inhibition in vivo at 100 mg/kg [10, 16] | also measured
20 nM | 13 nM | 110 nM | 75 nM | – | – | – | CC1(C)CCC(c2ccc(Cl)cc2)=C(CN2CCN(c3ccc(C(=O)NS(=O)(=O)c4ccc(N[C@H](CCN5CCOCC5)CSc5ccccc5)c(S(=O)(=O)C(F)(F)F)c4)cc3)CC2)C1 [Compound 2, N-(4-(4-((2-(4-chlorophenyl)-5,5-dimethyl-1-cyclohex-1-en-1-yl)methyl)piperazin-1-yl)benzoyl)-4-(((1R)-3-(morpholin-4-yl)-1-((phenylsulfanyl)methyl)propyl)amino)-3-((trifluoromethyl)sulfonyl)benzenesulfonamide, reference compound] | – | – | – | – | Ki [1]: 7 nM; lymphocytes in peripheral blood [6, 13]: decrease in lymphocytes; platelet counts [6, 13]: significant decrease in platelet counts
12 nM | 1060 nM | 41 nM | > 5000 nM | 0.119 nM | 151 nM | 111 nM | CC1(C)CCC(CN2CCN(c3ccc(C(=O)NS(=O)(=O)c4ccc(NCC5CCOCC5)c([N+](=O)[O-])c4)c(Oc4ccc5[nH]ccc5c4)c3)CC2)=C(c2ccc(Cl)cc2)C1 [Compound 3, 4-(4-{[2-(4-chlorophenyl)-4,4-dimethylcyclohex-1-en-1-yl]methyl}piperazin-1-yl)-2-(1H-indol-5-yloxy)-N-({3-nitro-4-[(tetrahydro-2H-pyran-4-ylmethyl)amino]phenyl}sulfonyl)benzamide] | 2.3 ×10^6 | 1.34 ×10^6 | 63% | 79% | lymphocyte reduction ([6]; 30 mg/kg intraperitoneal every day, four days): 47%; CD4+ T cells, CD8+ T cells and CD19+ B cells ([6]; 100 mg/kg and 300 mg/kg): statistically significant decrease; lymphocyte reduction ([6]; 100 mg/kg intraperitoneal every day, four days): 66%; lymphocytes vs phosal vehicle control [6, 14]: dose dependent decrease in lymphocytes; platelet counts [6, 14]: without significantly affecting platelet counts
1.2 nM | 67 nM | 8 nM | > 5000 nM | < 0.01 nM | 126 nM | – | CO[C@H]1CC[C@H](CNc2ccc(S(=O)(=O)NC(=O)c3ccc(N4CCN(CC5=C(c6ccc(Cl)cc6)CC(C)(C)CC5)CC4)cc3Oc3cnc4[nH]ccc4c3)cc2[N+](=O)[O-])CC1 [Compound 5, Trans-4-(4-{[2-(4-chlorophenyl)-4,4-dimethylcyclohex-1-en-1-yl]methyl}piperazin-1-yl)-N-[(4-{[(4-methoxycyclohexyl)methyl]amino}-3-nitrophenyl)sulfonyl]-2-(1H-pyrrolo[2,3-b]pyridin-5-yloxy)benzamide] | 0.98 ×10^6 | 1.02 ×10^6 | 84% | 84% | –
– | – | 23 nM | 3660 nM | < 0.01 nM | 27 nM | > 224 nM | CC1(C)CCC(CN2CCN(c3ccc(C(=O)NS(=O)(=O)c4cnc(OC[C@H]5CC[C@H](O)CC5)c(Cl)c4)c(Oc4cccc5[nH]ncc45)c3)CC2)=C(c2ccc(Cl)cc2)C1 [Compound 6, Trans-N-({5-chloro-6-[(4-hydroxycyclohexyl)methoxy]pyridin-3-yl}sulfonyl)-4-(4-{[2-(4-chlorophenyl)-4,4-dimethylcyclohex-1-en-1-yl]methyl}piperazin-1-yl)-2-(1H-indazol-4-yloxy)benzamide] | 1.91 ×10^6 | 0.98 ×10^6 | 69% | 85% | –
12 nM | 273 nM | 31 nM | 2900 nM | – | 21 nM | > 440 nM | CN1CCN(Nc2ccc(S(=O)(=O)NC(=O)c3ccc(N4CCN(CC5=C(c6ccc(Cl)cc6)CC(C)(C)CC5)CC4)cc3Oc3cnc4[nH]ccc4c3)cc2[N+](=O)[O-])CC1 [Compound 10, 4-(4-{[2-(4-chlorophenyl)-4,4-dimethylcyclohex-1-en-1-yl]methyl}piperazin-1-yl)-N-({4-[(4-methylpiperazin-1-yl)amino]-3-nitrophenyl}sulfonyl)-2-(1H-pyrrolo[2,3-b]pyridin-5-yloxy)benzamide] | 2.25 ×10^6 | 2.48 ×10^6 | 65% | 71% | –
2.3 nM | 59 nM | 17 nM | 2750 nM | < 0.01 nM | 23 nM | – | CC1(C)CCC(CN2CCN(c3ccc(C(=O)NS(=O)(=O)c4cnc(OCC5(F)CCOCC5)c(Cl)c4)c(Oc4cccc5[nH]ncc45)c3)CC2)=C(c2ccc(Cl)cc2)C1 [Compound 12, N-({5-chloro-6-[(4-fluorotetrahydro-2H-pyran-4-yl)methoxy]pyridin-3-yl}sulfonyl)-4-(4-{[2-(4-chlorophenyl)-4,4-dimethylcyclohex-1-en-1-yl]methyl}piperazin-1-yl)-2-(1H-indazol-4-yloxy)benzamide] | 1.44 ×10^6 | 2.21 ×10^6 | 78% | 74% | –
– | – | 22 nM | 3540 nM | < 0.01 nM | 20 nM | – | CC1(C)CCC(CN2CCN(c3ccc(C(=O)NS(=O)(=O)c4cnc(OC[C@H]5CC[C@H](O)CC5)c(Cl)c4)c(Oc4cc(F)cc5[nH]ncc45)c3)CC2)=C(c2ccc(Cl)cc2)C1 [Compound 14, N-({5-chloro-6-[(trans-4-hydroxycyclohexyl)methoxy]pyridin-3-yl}sulfonyl)-4-(4-{[2-(4-chlorophenyl)-4,4-dimethylcyclohex-1-en-1-yl]methyl}piperazin-1-yl)-2-[(6-fluoro-1H-indazol-4-yl)oxy]benzamide] | 3.02 ×10^6 | 2.33 ×10^6 | 54% | 73% | –
– | – | – | – | – | – | – | COc1c(C)c2c(c(O)c1C/C=C(\C)CCC(=O)OCCN1CCOCC1)C(=O)OC2 [MMF, mycophenolate mofetil, reference compound] | – | – | – | – | % Mice with PU < 300 mg/dL [11]: 94* %; % Survival [11]: 100* %; % Mice with PU < 300 mg/dL [12]: 40* %; % Survival [12]: 72* %
